Values quoted from earlier work, collected in patent publication US6444811B1, “Pyrazinones, compositions containing such compounds and methods of use” (Merck Frosst Canada & Co., priority 1999, dated 2002).

Experiments:
[1] = target: T1, caspase-1 (Homo sapiens, UniProt P29466)
T1 sequence (P29466 120-297 limits assumed): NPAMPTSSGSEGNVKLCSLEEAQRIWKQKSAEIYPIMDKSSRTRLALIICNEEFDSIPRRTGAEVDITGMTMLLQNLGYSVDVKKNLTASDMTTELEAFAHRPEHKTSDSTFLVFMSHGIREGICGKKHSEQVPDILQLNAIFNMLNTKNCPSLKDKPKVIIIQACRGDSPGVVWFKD
T1 sequence (P29466 317-404 limits assumed): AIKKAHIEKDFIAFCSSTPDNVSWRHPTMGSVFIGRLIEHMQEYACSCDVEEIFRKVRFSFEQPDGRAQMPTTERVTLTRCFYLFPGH

[2] = target: T2, caspase-3 (Homo sapiens, UniProt P42574)
T2 sequence (P42574 29-175 limits assumed): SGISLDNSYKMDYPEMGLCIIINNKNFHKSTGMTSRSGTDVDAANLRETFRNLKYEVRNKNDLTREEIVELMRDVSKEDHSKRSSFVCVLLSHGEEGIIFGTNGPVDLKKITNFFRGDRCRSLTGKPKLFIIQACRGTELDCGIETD
T2 sequence (P42574 176-277 limits assumed): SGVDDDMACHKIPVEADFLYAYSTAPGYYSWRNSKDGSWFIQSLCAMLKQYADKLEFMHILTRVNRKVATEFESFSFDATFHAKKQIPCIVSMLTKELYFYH

In the case of Ac-YVAD-CHO, the Ki [1] is listed as < 0.001 µM, the “kon caspase-1” value ([1]; slow-binding time-dependent inhibition) is listed as 380000 M⁻¹ s⁻¹ and the Ki [2] is listed as 12 µM.
